In patent US8809498B2, “Pepstatin A derivatives” (priority 2008, dated 2014):
Starred links: 1 amine or outer side, 2 acyl side, 3 side chain; linkers in the order of their positions; H or OH if unused. Non-standard residues stand in square brackets, D forms with d. Residues, ends and D or L forms follow the SMILES beside them. *: point of attachment. X1 = CC(F)(F)C[C@H](N[*:1])C(=O)[*:2]; Sta = CC(C)C[C@H](N)[C@@H](O)CC(=O)O; Isovaleryl = CC(C)CC(=O)*; Nle = CCCC[C@H](N)C(=O)O; Orn = NCCC[C@H](N)C(=O)O; Dab = NCC[C@H](N)C(=O)O; Abu = CC[C@H](N)C(=O)O

Key:
Type in all cases: biochemical
Sap1 of Candida albicans = Sap1 of Candida albicans (Candida albicans, UniProt P0CY27); assay: Inhibition of proteolytic activity of Sap1 (resorufin-marked casein, fluorescence); details: for effectiveness against Sap1 compared with pepstatin A: versus pepstatin A
Description: (§1) For this purpose, that inhibitor concentration was determined in vitro at which the proteolytic activity of the enzyme or its velocity of metabolizing a substrate, respectively, was reduced for 50%.
(§2) The proteolytic activity of the tested Saps was determined at the pH optimum of those Saps. Resorufin-marked casein was used as substrate. Proteolysis of casein can be detected by an increase in fluorescence due to released resorufin (a fluorescence marker) by proteolysis.
(§3) Sap1, Sap3 and Sap6 of Candida albicans were independently dissolved in 2-(N-morpholino)ethanesulfonic acid (MES) having a concentration of 10 mmol/l and a pH of 6.5 resulting in enzyme solutions having a Sap concentration of 100 mmol/l. After one hour incubation at room temperature, 80 μl of a substrate solution comprising resorufin-marked casein in a sodium citrate buffer having a concentration of 500 mmol/l and a pH of 3.5 (in case of Sap3), 4.5 (in case of Sap1) and 5.0 (in case of Sap6) were added to 20 μl of enzyme solution. The resulting Sap concentration was 5 nmol/l. The resulting casein concentration was chosen such that the Saps could work in excess of substrate. Different Sap inhibitors were added, resulting in a final inhibitor concentration of 1 nmol/1, 2 nmol/1, 5 nmol/1, 10 nmol/l, nmol/l or 50 nmol/l in each case. One enzyme-substrate sample was left without addition of inhibitor. All experiments were performed in triplicate.
(§4) The mixture of enzyme and substrate or of enzyme, substrate and inhibitor was incubated at 37° C. under agitation at 300 rpm (rounds per minute) for 60 min in each case. Afterwards, 20 μl of a trichloroacetic acid solution (30%, w/v) were added. The mixture was placed on ice for 5 minutes and centrifuged afterwards for 3 min at 6000 rpm. The supernatant was removed.
(§5) To carry out fluorescence measurements, 100 μl of the supernatant were mixed with 100 μl Tris-HCl (trishydroxymethylaminomethane-HCl) having a concentration of 1 mol/l and a pH of 10.0. The fluorescence of this mixture was measured directly after adding Tris-HCl using an excitation wavelength of 530 nm and an emission wavelength of 590 nm on a CytoFluor 2350 apparatus (Millipore, Bedford, Mass., USA), wherein sensitivity was set to 2 and bandwidth was set to 7.
(§6) The average of three independent fluorescence measurements was calculated. The fluorescence of enzyme without inhibitor (i.e. inhibitor concentration of 0 nmol/l) was set to 100% enzyme activity. The activity of inhibited enzyme was calculated accordingly from the fluorescence of inhibited enzyme with respect to fluorescence of enzyme without inhibitor. Finally, the enzyme activity was plotted against the inhibitor concentration and the IC50 value was determined.

Sap3 of Candida albicans = Sap3 of Candida albicans (Candida albicans, UniProt P0CY29); assay: Inhibition of proteolytic activity of Sap3 (resorufin-marked casein, fluorescence)
Description: as §1, §2, §3, §4, §5, §6

Sap5 = Sap5 (Candida albicans, UniProt P43094); assay: Inhibition of proteolytic activity of Sap5
Description: as §1, §2, §4, §5, §6

Sap6 of Candida albicans = Sap6 of Candida albicans (Candida albicans, UniProt Q5AC08); assay: Inhibition of proteolytic activity of Sap6 (resorufin-marked casein, fluorescence)
Description: as §1, §2, §3, §4, §5, §6

Chain of Sap6 of Candida albicans (Q5AC08 77-418): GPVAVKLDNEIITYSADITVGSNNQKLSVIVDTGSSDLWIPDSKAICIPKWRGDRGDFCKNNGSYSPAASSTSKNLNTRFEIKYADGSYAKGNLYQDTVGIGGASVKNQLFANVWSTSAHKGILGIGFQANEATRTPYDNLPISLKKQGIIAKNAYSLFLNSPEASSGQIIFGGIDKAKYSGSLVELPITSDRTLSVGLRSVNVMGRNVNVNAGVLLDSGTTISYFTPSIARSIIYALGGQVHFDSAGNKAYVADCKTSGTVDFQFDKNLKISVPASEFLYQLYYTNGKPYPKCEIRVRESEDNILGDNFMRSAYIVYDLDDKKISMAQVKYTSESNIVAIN
Chain of Sap1 of Candida albicans (P0CY27 51-391): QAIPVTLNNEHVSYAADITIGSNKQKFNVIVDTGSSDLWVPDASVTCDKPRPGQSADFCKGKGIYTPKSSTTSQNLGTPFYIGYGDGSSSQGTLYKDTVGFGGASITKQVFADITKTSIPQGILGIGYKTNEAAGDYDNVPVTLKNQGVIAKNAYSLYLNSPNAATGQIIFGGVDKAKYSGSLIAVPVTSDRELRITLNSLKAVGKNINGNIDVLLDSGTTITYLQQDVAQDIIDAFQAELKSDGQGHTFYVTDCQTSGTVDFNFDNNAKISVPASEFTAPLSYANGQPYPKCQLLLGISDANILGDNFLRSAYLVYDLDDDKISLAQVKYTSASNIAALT
Chain of Sap3 of Candida albicans (P0CY29 59-398): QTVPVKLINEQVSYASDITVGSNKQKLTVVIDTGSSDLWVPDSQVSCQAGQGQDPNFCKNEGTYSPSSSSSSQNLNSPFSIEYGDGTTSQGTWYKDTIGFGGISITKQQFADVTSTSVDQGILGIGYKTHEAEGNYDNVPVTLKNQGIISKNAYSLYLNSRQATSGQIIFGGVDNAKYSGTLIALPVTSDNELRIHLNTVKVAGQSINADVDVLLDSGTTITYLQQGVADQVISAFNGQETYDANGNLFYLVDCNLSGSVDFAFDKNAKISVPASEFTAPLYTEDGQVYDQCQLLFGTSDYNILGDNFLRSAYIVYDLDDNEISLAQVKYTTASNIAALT
Chain of Sap5 (P43094 77-418): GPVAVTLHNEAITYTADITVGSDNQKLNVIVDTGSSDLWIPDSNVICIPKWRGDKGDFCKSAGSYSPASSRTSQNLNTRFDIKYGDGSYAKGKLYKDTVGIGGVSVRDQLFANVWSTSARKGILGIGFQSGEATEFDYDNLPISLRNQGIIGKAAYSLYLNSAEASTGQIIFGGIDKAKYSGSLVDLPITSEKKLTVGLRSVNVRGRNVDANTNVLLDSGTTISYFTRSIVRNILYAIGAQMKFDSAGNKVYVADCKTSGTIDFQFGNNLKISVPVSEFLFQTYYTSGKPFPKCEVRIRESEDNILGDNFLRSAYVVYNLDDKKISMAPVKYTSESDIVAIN

Compound	IC50 (Sap1 of Candida albicans) [nM]	effectiveness against Sap1 compared with pepstatin A (Sap1 of Candida albicans)	IC50 (Sap3 of Candida albicans) [nM]	IC50 (Sap5) [nM]	effect on Sap 5 (Sap5; versus pepstatin A)	IC50 (Sap6 of Candida albicans) [nM]	effect on Sap 6 (Sap6 of Candida albicans; versus pepstatin A)	specificity for Sap3 (Sap3 of Candida albicans; versus Sap1 and Sap6)	concentration equally effective in inhibiting Sap1, fold less than that of amprenavir (Sap1 of Candida albicans; versus amprenavir) [fold]
CCCC[C@H](NC(=O)[C@H](Cc1ccccc1)NC(=O)CC(C)C)C(=O)N[C@@H](CC(C)C)[C@@H](O)CC(=O)N[C@@H](CCCCN)C(=O)N[C@@H](CC(C)C)[C@@H](O)CC(=O)O [Compound K, (N-Iva-Phe)-Nle-Sta-Lys-Sta] (Isovaleryl-F[Nle][Sta]K[Sta]-OH)	< 5	more effective against Sap1 than pepstatin A itself	20	~5	increased effect on Sap 5	~50			
Cc1c(O)cccc1C(=O)N[C@@H](CSc1ccccc1)[C@H](O)CN1C[C@H]2CCCC[C@H]2C[C@H]1C(=O)NC(C)(C)C [Nelfinavir, reference compound]	~250000		> 312000						
CC(C)CC(=O)N[C@H](C(=O)N[C@H](C(=O)N[C@@H](CC(C)C)[C@@H](O)CC(=O)N[C@@H](CCCNC(=N)N)C(=O)N[C@@H](CC(C)C)[C@@H](O)CC(=O)O)C(C)C)C(C)C [P1'(Arg)-pepstatin, (N-Iva-Val)-Val-Sta-Arg-Sta] (Isovaleryl-VV[Sta]R[Sta]-OH)	~10		< 5			< 5	increased effects on Sap 6		
CC(C)CC(=O)N[C@H](C(=O)N[C@H](C(=O)N[C@@H](CC(C)C)[C@@H](O)CC(=O)N[C@@H](CCN)C(=O)N[C@@H](CC(C)C)[C@@H](O)CC(=O)O)C(C)C)C(C)C [P1'(Dab)-pepstatin, (N-Iva-Val)-Val-Sta-Dab-Sta] (Isovaleryl-VV[Sta][Dab][Sta]-OH)	~400		~20			> 500		very high specificity for Sap3	
CC(C)CC(=O)N[C@H](C(=O)N[C@H](C(=O)N[C@@H](CC(C)C)[C@@H](O)CC(=O)N[C@@H](CCCCN)C(=O)N[C@@H](CC(C)C)[C@@H](O)CC(=O)O)C(C)C)C(C)C [P1'(Lys)-pepstatin, (N-Iva-Val)-Val-Sta-Lys-Sta] (Isovaleryl-VV[Sta]K[Sta]-OH)	< 5	more effective against Sap1 than pepstatin A itself	< 5			~7			1000
CC(C)CC(=O)N[C@H](C(=O)N[C@H](C(=O)N[C@@H](CC(C)C)[C@@H](O)CC(=O)N[C@@H](CCCN)C(=O)N[C@@H](CC(C)C)[C@@H](O)CC(=O)O)C(C)C)C(C)C [P1'(Orn)-pepstatin, (N-Iva-Val)-Val-Sta-Orn-Sta] (Isovaleryl-VV[Sta][Orn][Sta]-OH)	~20		~15			~30			
CC[C@H](NC(=O)[C@@H](NC(=O)CC(C)C)C(C)C)C(=O)N[C@@H](CC(C)C)[C@@H](O)CC(=O)N[C@@H](C)C(=O)N[C@@H](CC(C)C)[C@@H](O)CC(=O)O [P2(Abu)-pepstatin, (N-Iva-Val)-Abu-Sta-Ala-Sta, reference compound] (Isovaleryl-V[Abu][Sta]A[Sta]-OH)	~50		< 5			~20			
CC(C)CC(=O)N[C@H](C(=O)N[C@@H](CC(C)(F)F)C(=O)N[C@@H](CC(C)C)[C@@H](O)CC(=O)N[C@@H](C)C(=O)N[C@@H](CC(C)C)[C@@H](O)CC(=O)O)C(C)C [P2(DfpGly)-pepstatin, (N-Iva-Val)-DfpGly-Sta-Ala-Sta] (Isovaleryl-V[X1][Sta]A[Sta]-OH)	~20		~5			~15			
CC(C)CC(=O)N[C@H](C(=O)N[C@@H](CC(C)C)C(=O)N[C@@H](CC(C)C)[C@@H](O)CC(=O)N[C@@H](C)C(=O)N[C@@H](CC(C)C)[C@@H](O)CC(=O)O)C(C)C [P2(Leu)-pepstatin, (N-Iva-Val)-Leu-Sta-Ala-Sta, reference compound] (Isovaleryl-VL[Sta]A[Sta]-OH)	> 500		100			~200			
